These results are taken from patent US10583131B2, “Methods of treating pancreatic cancer” (ChemoCentryx, Inc., priority 2016, dated 2020).

The nature of series [1]: Pharmacokinetics in Sprague-Dawley rats (i.v. and oral). As to conditions: for clearance / bioavailability / AUC: rat, plasma; for clearance: iv, 0.5 mg/kg; for bioavailability: po 2 mg/kg, iv 0.5 mg/kg; for AUC: po, 2 mg/kg. It is filed as in vivo. On the procedure:
Compound Ib and PF-04136309 were dosed intravenously at 0.5 mg/kg and orally at 2 mg/kg, in aqueous hydroxypropyl methylcellulose. Blood samples were collected at predetermined time points after each dosing and the corresponding plasma concentrations of Compound Ib and PF-04136309 were analyzed using an LC-MS/MS method. Plasma concentration-time curves were constructed and the corresponding pharmacokinetic parameters were derived using non-compartmental analysis.
Blood (0.2 mL) was sampled through the jugular vein or cardiac puncture (for terminal point only) at pre-dose, 2, 5, 10, 15, and 30 min, 1, 2, 4, 6, and 8 hours post-dose for i.v. dosing and at pre-dose, 5, 15, and 30 min, 1, 1.5, 2, 4, 6, and 8 hours post-dose for oral dosing. Blood samples were collected into chilled polypropylene tubes containing sodium EDTA as the anticoagulant and plasma was collected through centrifugation (Eppendorf Centrifuge 5417R) at 10,000 rpm and 4° C. for 6 minutes and stored at −20° C. until analysis.
Plasma samples (50 μL) were extracted with 200 μL acetonitrile containing the internal standard on a linear shaker for 10 min and then centrifuged at 3700 g for 10 min at 4° C. (Allegra X-15R centrifuge, Beckman Coulter, Inc., Fullerton, Calif.). 100 μL of the resulting supernatant was transferred into a new plate and mixed with 100 μL 0.1% formic acid in water for LC-MS/MS analysis.
Calibration standard samples were prepared with blank Sprague-Dawley rat plasma, at 5000, 2500, 1000, 500, 100, 50, 20, 10, 4, 2 and 1 ng/mL of compound. Three levels of the standard stock solutions (1000, 100 and 10 ng/mL) were spiked separately into male Sprague-Dawley rat plasma and used as QC samples. Plasma standards and QC samples were treated identically and prepared in parallel with the plasma samples. Extracted samples were analyzed by LC-MS/MS.
Mass spectrometer acquisition and integration were performed with Applied Biosystems-Sciex Analyst software (version 1.4.2). The calibration curve was obtained through a quadratic regression and the calibration range was 2-5000 ng/mL.
Instrument: • API 3000 mass spectrometer (Applied Biosystems, Foster City, Calif.) • Agilent 1100 HPLC binary pump (Santa Clara, Calif.) • LEAP Technologies HTS Pal Autosampler (Carrboro, N.C.) • Thermo Scientific Cohesive Aria LX-2 duplexing system (Waltham, Mass.) Column: Zorbax Eclipse XDB Phenyl 2.1×50 mm (Agilent, Santa Clara, Calif.) Injection Volume: 10 μL Flow Rate: 0.60 mL/min
Ionization Mode: Electrospray (ESI). Detection Mode: Positive MRM. For each dosing route, descriptive pharmacokinetic parameters were determined by a standard non-compartmental analysis (Wagner, 1993) from the plasma concentration-time curve. Pharmacokinetic analysis was performed by using XLFit® v.4.3.1 (ID Business Solutions Inc., Alameda, Calif.) in conjunction with Microsoft Excel 2003.

Series [2] is described as follows: Pharmacokinetics of compound Ib in male beagle dogs (i.v. and oral). Type of series: in vivo. Conditions: Dog. On the procedure: The pharmacokinetic profile of compound Ib was evaluated in male beagle dogs following intravenous (i.v.) and oral (p.o.) administration. A single dose of compound Ib was dosed intravenously at 0.5 mg/kg and orally at 2 mg/kg. Blood samples were collected at predetermined time points after each dosing and the corresponding plasma samples were analyzed using an LC-MS/MS method. Plasma concentration-time curves were constructed using the plasma concentrations and the corresponding pharmacokinetic parameters were derived by non-compartmental analysis.
Six animals weighing 11.5, 9.9, 9.9, 14.6, 11.1, and 9.8 kg, respectively, were used with Compound Ib dosed intravenously at 0.5 mg/kg (the first 3 animals) and orally at 2 mg/kg (the second 3 animals).
For i.v. dosing, a solution formulation of Compound Ib was prepared in 36.8% water/31.6% propylene glycol/31.6% N,N-dimethyl acetamide at 0.5 mg/mL and each animal received 1 mL/kg. For oral dosing at 2 mg/kg, a solution formulation was prepared in 1% hydroxypropyl methylcellulose at 0.5 mg/mL and each animal received 4 mL/kg.
For dosing, blood (˜1 mL) was drawn at pre-dose and at 5, 15, and 30 min, 1, 2, 4, 8, 12, and 24 hours post-dose. Blood was sampled from the foreleg vein via butterfly catheter and then placed into chilled polypropylene tubes containing K2EDTA as the anticoagulant and kept on ice until centrifugation. Plasma was collected through centrifugation and shipped on dry ice for sample analysis.
Plasma samples (50 μL) were extracted with 200 μL 0.1% formic acid/acetonitrile containing the internal standard on a linear shaker for 10 min and then centrifuged at 3700 g for 10 min at 4° C. (Allegra X-15R centrifuge, Beckman Coulter, Inc., Fullerton, Calif.). 100 μL of the resulting supernatant was transferred into a new plate and mixed with 100 μL 0.1% formic acid in water for LC-MS/MS analysis.
Calibration standard samples were prepared with blank dog plasma, at 5000, 2500, 1000, 500, 100, 50, 20, 10, 4, 2 and 1 ng/mL of Compound Ib. Three levels of the standard stock solutions (1000, 100 and 10 ng/mL) were spiked separately into male beagle dog plasma and used as QC samples. Plasma standards and QC samples were treated identically and prepared in parallel with the plasma samples.
Sample analysis was performed by LC-MS/MS (details shown below). Acquisition and peak integration were performed with the Applied Biosystems-Sciex Analyst software (version 1.4.2). Calibration curves were obtained through quadratic regression with a weighting of 1/x. The calibration range was 1-5000 ng/mL.
Instrument: • Applied Biosystems API 3000 mass spectrometer (Foster City, Calif.) • Agilent 1100 HPLC binary pump (Santa Clara, Calif.) • LEAP Technologies HTS Pal Autosampler (Carrboro, N.C.) • Thermo Scientific Cohesive Aria LX-2 duplexing system (Waltham, Mass.) Column: Zorbax Eclipse XDB Phenyl 2.1×50 mm (Agilent, Santa Clara, Calif.) Injection Volume: 10 μL Flow Rate: 0.60 mL/min
Ionization Mode: Turbo Ionspray ESI Detection Mode: Positive MRM For each dosing route, descriptive pharmacokinetic parameters were determined by a standard non-compartmental analysis (Wagner, 1993) from the plasma concentration-time curve. • CL: Total body clearance • AUC: area under the curve • F: Bioavailability.
Pharmacokinetic analysis was performed by using XLFit® v.4.3.1 (ID Business Solutions Inc., Alameda, Calif.) in conjunction with Microsoft Excel 2003.

Series [3] relates to non-resectable pancreatic adenocarcinoma. Description: Open-label Phase Ib clinical trial of compound Ib plus FOLFIRINOX, response by RECIST 1.1. It is filed as in vivo, patients. As to conditions: for Tumor control rate: 12 weeks of treatment, 150 mg twice daily plus FOLFIRINOX; for Progressive disease / Stable disease / Overall response rate: 12 weeks, plus FOLFIRINOX; for Overall response rate: RECIST 1.1, all partial responses. On the procedure: Fifty-four patients age 18 years or older were enrolled on an open-label phase 1-b interventional study to evaluate the safety and efficacy of compound Ib in patients with pancreatic adenocarcinoma also receiving FOLFIRINOX chemotherapy. Dosing consisted of 150 mg tablets for oral administration once or twice daily given orally for at least 12 weeks.
Inclusion criteria included: • Histologically or cytologically confirmed non-resectable pancreatic adenocarcinoma with or without metastases • Eastern Cooperative Oncology Group (ECOG) performance status score ≤2 • Anticipated life expectancy a ≥12 weeks • Radiographically measurable disease acc. to RECIST 1.1 • Use of adequate contraception (as described in protocol) • Ability to provide written informed consent and comply with study requirements.
Exclusion criteria included: • Received other cancer treatment or investigational drug within 4 weeks prior to screening • Women who are pregnant or breastfeeding • Had major surgery within 4 weeks of first dose of study drug • Inadequate liver, renal or bone marrow function within 2 weeks of first dose • Serious concurrent illness, altered medical status or any uncontrolled medical condition • Any infection requiring antibiotic or anti-viral treatment within 4 weeks of screening • Known active HIV, HBV or HCV infection • Inability to swallow tablets • History or presence of any medical condition or disease which, in the opinion of the investigator, may place the subject at unacceptable risk for study participation. Initial 12 week overall response rate (ORR) results:
The open-label, multi-center, Phase Ib clinical trial was designed to evaluate the safety and efficacy of orally administered compound Ib plus FOLFIRINOX in 50 patients with non-resectable pancreatic cancer. Patients received 150 mg of compound Ib twice daily for 12 weeks. After 12 weeks, patients who achieved stable disease or better (as measured by Response Evaluation Criteria In Solid Tumors, or RECIST 1.1), were eligible to continue on study for at least an additional 12 weeks unless disease progression occured. Per protocol, the Eastern Cooperative Oncology Group (ECOG) performance status of patients in the trial was 0, 1 or 2.
Patients enrolled in the study had advanced non-resectable pancreatic cancer (78% of patients having metastatic disease), and an Eastern Cooperative Oncology Group (ECOG) Performance Status score of less than or equal to 2. In order to assess the initial treatment effect of compound Ib, the study provided for assessment of overall response rate (ORR) based on computerized tomography (CT) imaging following 12 weeks of treatment.
The pre-specified evaluable ORR population consists of all patients who have at least one post-baseline disease CT assessment. Response rate results at 12 weeks of treatment were as follows: […]

The mark [4] stands for this setting: male, beagle, plasma, po, mean, N = 3, dosed at 2 mg/kg.
The mark [5] stands for this setting: ITT Patient Population (N = 50).
[6] abbreviates: Pre-Specified Evaluable Patient Population (N = 41).

Each structure is given as a SMILES string.

Turning to `Cc1cnc(C(=O)c2ccnc3[nH]ccc23)c(NS(=O)(=O)c2ccc(Cl)c(C(F)(F)F)c2)c1` [Compound Ib], in series [1], the “Clearance compared to PF-4136309” value was “much lower”, the “Exposure (AUC) compared to PF-4136309” value is reported as “much higher”, the clearance came to 11.5 mL/min/kg and the bioavailability is 133%. The AUC – broadly, the area under the concentration-time curve, a measure of exposure – in series [1] was 3910 ng·h/mL. Besides, in series [2] (at comparable doses), the “Clearance compared to PF-4136309” value is given as “much lower” and the “Exposure (AUC) compared to PF-4136309” value was “much higher”. Also, the clearance in series [2] (male, beagle, plasma, iv, mean, N = 3, dosed at 0.5 mg/kg) is 0.7 mL/min/kg. Besides, in series [2] (setting [4]), the exposure (AUC) came out at 67000 ng·h/mL and the bioavailability worked out at 143%. Moreover, in series [3] (setting [5]), the Tumor control rate is listed as 32/50 (64%), the Progressive disease is given as 9/50 (18%), the Stable disease is recorded as 17/50 (34%) and the Overall response rate is 15/50 (30%). The Tumor control rate in series [3] (Pre-Specified Evaluable Patient Population (N = 41), includes stable disease, partial response and complete response) is 32/41 (78%). In series [3] (setting [6]), the Progressive disease was 9/41 (22%), the Stable disease is recorded as 17/41 (41%) and the Overall response rate was 15/41 (37%). For the same compound, in series [3] (advanced pancreatic cancer patients, combined with FOLFIRINOX), the Tolerability result is “well tolerated”. Moreover, in series [3] (compound Ib combined with FOLFIRINOX, versus historical FOLFIRINOX alone), the “Incidence and rate of adverse events” value is “consistent with data reported historically for FOLFIRINOX alone”.
Regarding `O=C(NCC(=O)N1CC[C@H](N[C@H]2CC[C@@](O)(c3ccc(-c4ncccn4)cn3)CC2)C1)c1cccc(C(F)(F)F)c1` [PF-04136309, reference compound], in series [1], the clearance was 71.1 mL/min/kg, the bioavailability was found to be 22% and the AUC was found to be 111 ng·h/mL.
